Measurements reported in publication PMC11099041, “Tissue distribution and retention drives efficacy of rapidly clearing VHL-based PROTACs” (Communications Medicine, 2024).

Key:
[1] = Bioavailability after PO administration (peer review reply); assay type: in vivo; details: authors' reply in peer review file
[2] = rat, in vivo
Source text: Male Sprague Dawley rats, intact or bile-cannulated, were from Envigo RMS, Inc. The animals were acclimated to study conditions for five days prior to dose administration. During acclimation, animals were individually housed in suspended, stainless steel, wire-mesh cages. During the test period, animals were placed in Nalgene cages designed for the collection of urine, feces, and bile. Certified Rodent Diet #2016C or 2016CM (Envigo RMS, Inc.) were provided ad libitum. Water was provided fresh daily. Environmental controls for the animal room were set to maintain a temperature of 20-26 °C, a relative humidity of 50 ± 20%, and a 12-hour light/12-hour dark cycle. […] Three BDC rats were used for collection of bile, urine, and feces, five intact rats for collection of plasma, blood, urine, feces, and tissues, and eight intact rats for collection of blood and carcasses for QWBA. […] The vehicle for the IV dose was 20% 2-hydroxypropyl-β-cyclodextrin (HP-β-CD) in 50 mM sodium acetate buffer, pH 4.0. […] The supernatant was removed, and the formulation appeared to be a very slight yellow solution. Stability was checked by HPLC analysis of pre- and post-dose aliquots. Animals were not fasted. The actual amount administered was determined by weighing the dose syringe before and after dose administration. The IV dose of 4 mg/kg was administered via a tail vein. For QWBA rats, one animal/time point was prepared for QWBA at approximately 0.25, 1, 4, 8, 24, 48, 168, and 336 hours. […] Blood was maintained on wet ice until being aliquoted for radioanalysis and centrifuged to obtain plasma. […] Each carcass was drained, blotted dry, placed into an appropriately labeled bag, and placed on dry ice or stored at ~-70 °C for at least 2 hours. The frozen carcasses were embedded in chilled carboxymethylcellulose and frozen into blocks. Embedded carcasses were stored at ~-20 °C in preparation for autoradiographic analysis. The samples were stored at -70 °C before analysis. […] Prior to section collection, standards fortified with ^14C radioactivity were placed into the frozen block containing the carcass and were used for monitoring the uniformity of section thickness. Appropriate sections were collected on adhesive tape at 40 μm thickness, in a Leica CM 3600 cryomicrotome in accordance with Covance standard operating procedures. Sections were collected at five levels of interest in the sagittal plane. All major tissues, organs, and biological fluids were represented. Collected sections were dried at ~-20 °C. A section set from each animal was prepared by mounting a representative section from each level of interest. Mounted sections were tightly wrapped with Mylar film and exposed on phosphor-imaging screens along with fortified blood standards for subsequent calibration of the image analysis software. Screens were exposed for 4 days. Exposed screens were scanned using a Typhoon scanner. The autoradiographic standard image data were sampled using InterFocus Imaging Ltd. MCIDTM Analysis software to create a calibrated standard curve. Specified tissues, organs, and fluids were analyzed. […] Tissue concentration data are presented in tabular format. Autoradiographs were annotated. The mean time concentration profile was generated for each group, and an overall AUC was then calculated with these sparse samples of rats and mice. […]

| Compound | Bioavailability after PO administration [1] | Half-life (t1/2) in tissues [2] | Radioactivity t1/2, brain cerebellum [2] | Radioactivity t1/2, small intestine [2] | Cmax, adrenal glands ([2]; iv, 4 mg/kg) | Cmax, kidneys ([2]; iv, 4 mg/kg) | Cmax, liver ([2]; iv, 4 mg/kg) | Cmax, lungs ([2]; iv, 4 mg/kg) | Cmax, pancreas ([2]; iv, 4 mg/kg) | Cmax, salivary glands ([2]; iv, 4 mg/kg) | Cmax, spleen ([2]; iv, 4 mg/kg) | Cmax, thyroid gland ([2]; iv, 4 mg/kg) | t½ ([2]; iv, 4 mg/kg) |
| --- | --- | --- | --- | --- | --- | --- | --- | --- | --- | --- | --- | --- | --- |
| Cc1ncsc1-c1ccc(C(C)NC(=O)C2CC(O)CN2C(=O)C(c2cc(N3CCC(CN4CCC(OC5CC(Oc6cc(N7C8CCC7CN(c7cc(-c9ccccc9O)nnc7N)C8)ccn6)C5)CC4)CC3)no2)C(C)C)cc1 (stereo not shown) [A947] | did not find bioavailability |  |  |  |  |  |  |  |  |  |  |  |  |
| Cc1ncsc1-c1ccc(C(C)NC(=O)C2CC(O)CN2C(=O)C(c2cc(N3CCC(CN4CCC(OC5CC(Oc6cc(N7C8CCC7CN(c7cc(-[14c]9[14cH][14cH][14cH][14cH][14c]9O)nnc7N)C8)ccn6)C5)CC4)CC3)no2)C(C)C)cc1 (stereo not shown) [14C-A947] |  | 87 to 100 h | 11 h | 167 h | 17 µg/g | 22 µg/g | 32 µg/g | 12 µg/g | 9 µg/g | 12 µg/g | 21 µg/g | 18 µg/g | 111 h |
